Patent US7763292B2, “Cancer cell growth inhibition by black bean (Phaseolus vulgaris L) extracts” (Instituto Technologico y de Estudios Superiores de Monterrey, priority 2004, dated 2010)
Blank lines part the entries; values can stand above or below the compound they belong to.

Tests used:
[1] = literature (Dávalos, 2004); cited from earlier work
MCF-7 cells = details: cited from earlier work
[2] = test system: Human hormone dependent mammary cancer cells (MCF-7); experiment: MCF-7 growth inhibition bioassay of quercetin and flavonol-rich black bean extract; assay type: cell-based; details: quercetin alone
Excerpt: Human hormone dependent mammary cancer cells (MCF-7) were used to conduct bioassays to test growth inhibitory effects of commercially available quercetin alone and in presence of other flavonols and phytochemicals found in black bean extracts described in Table 2.

[3] = test system: hormone dependent mammary cancer cells MCF-7; experiment: MCF-7 proliferation in hormone-free serum, 13 days incubation; assay type: cell-based
Experimental: Methanol extracts of raw and 5-day malted NG-Perla black beans were obtained by the methods described in Examples 2 and 8, respectively, and used to test their effects on hormone dependent mammary cancer cell proliferation (MCF-7).
Since isoflavones found in black beans may show estrogenic activity, and MCF-7 are hormone dependent mammary cancer cells; tests were conducted in hormone-free serum to discard the possibility of enhanced proliferation instead of inhibition. […] Thus, MCF-7 cells were first cultured with purified commercial standards of genistein (Indofine Chemical Company, Hillsborough, N.J.) and genistin (Sigma-Aldrich Chem. Co., St. Louis, Mo.) as positive controls with the aim of testing their effects on proliferation of this cancer cell line.

SMILES: COc1ccc(O)c(C(C)(C)C)c1 [BHA, butylated hydroxyanisole]
antioxidant value [1]: 2.43 TE

SMILES: O=c1c(O)c(-c2ccc(O)c(O)c2)oc2cc(O)cc(O)c12 [Quercetin]
antioxidant value [1]: 10.5 TE
IC50 (MCF-7 cells; regular serum conditions (Rodgers, 1998), read-out: concentration needed to inhibit 50% of MCF-7 cancer cells): ≥ 200 µM
inhibitory effect on MCF-7 growth [2]: did not have any inhibitory effect

SMILES: O=C(O)/C=C/c1ccc(O)c(O)c1 [caffeic acid]
antioxidant value [1]: 6.63 TE

IC50 ([3]; Homo sapiens, MCF7, 312 h, 13 days incubation, estimated by curve fit to FIG. 12, read-out: concentration required to lower the cell population doublings from 6 to 3 (50% inhibition)): 18.5 µM
SMILES: O=c1c(-c2ccc(O)cc2)coc2cc(O)cc(O)c12 [genistein]

SMILES: O=c1c(-c2ccc(O)cc2)coc2cc(O[C@@H]3O[C@H](CO)[C@@H](O)[C@H](O)[C@H]3O)cc(O)c12 [genistin]
proliferation inhibition of MCF-7 ([3]; even at concentrations higher than 20 μM): did not show proliferation inhibition

SMILES: O=c1c(O)c(-c2cc(O)c(O)c(O)c2)oc2cc(O)cc(O)c12 [myricetin]
inhibition of MCF-7 cells (MCF-7 cells; regular serum conditions): do not inhibit
